Source: patent US7008937B2, “Porphyrins and metalloporphyrins for inhibiting heme iron uptake” (Frontier Scientific, Inc., priority 2003, dated 2006)
Where two headings read alike, the source gives them in different places.

Legend:
IEC-6 cells [1] = assay: Inhibition of in vitro uptake of radiolabeled iron from heme in IEC-6 cells
Method: In a first assay, confluent monolayers of IEC-6 cells were incubated with radioactive iron-labeled heme. […] In this assay, the heme had been previously solubilized in taurodeoxycholate micelles. Twelve-well tissue culture plates were used with 1 ml of phosphate-buffered saline (or “PBS”) containing Ca, Mg and glucose. Cells were incubated with the heme solution and a designated inhibitor for times indicated at a temperature of 37° C.
After incubation, the cells were washed with 1 ml of the same buffer at 4° C. three times. The cells were then solubilized by the addition of 1 ml of water and sonicated for 10 minutes in a Branson sonicator. The cells were removed by titration and transferred to 75 ml tubes. Subsequently, the radioactivity of the cells was determined using a gamma counter.
For an initial screen, each compound was added at a concentration of 800 micromolar, and given a timed uptake period of over 60 minutes. […] The concentration of inhibitor required to get a 50% decrease in heme uptake inhibition counts was then determined.

[2] = 50 micromolar in duodenal loop, 15 minutes
Method: Subsequently, cardiac punctures were performed on the rats, and between 0.45 and 1.3 ml of blood were collected from each. The plasma of the blood samples was separated and precipitated overnight with 10% trichloroacetic acid.

K562 cells = test system: K562 cells
From the text: In a next set of experiments, K562 cells were used to test toxicity of the porphyrins of the invention. K562 cells are erythroleukemia cells from a cell line derived from a chronic myeloid leukemia patient in blast crisis. K562 cells were selected for this testing based on their ability to grow in suspension. This characteristic renders cell counting more reliable.

IEC-6 cells [3] = test system: IEC-6 cells
rat duodenum = conditions: for inhibition of incorporation of radiolabeled heme into the animals: 4 animals (FIG. 8)
From the text: In this assay, Wistar rats were first anesthetized with pentobarbital. Wistar rats are from a strain originally developed at the Wistar Institute and commonly used all over the world for research. Following anesthesia, a midline incision was made in each of the rats. The duodenum of each animal was isolated between the pylorus and the ligament of Trietz by umbilical tape. The bile duct of each animal was then identified and ligated. Following this, a syringe was passed through the pylorus of each animal, and one ml of radiolabeled heme solution was introduced into the duodenum. The heme solutions used contained either only heme, or additionally included an appropriate concentration of an inhibitor to be evaluated.
Following introduction of the heme or heme/inhibitor solution, the duodenal loop of each animal was tied off. Heme absorption was allowed to continue for a period of 10 minutes. Following this absorption period, the duodenal loop of each rat was removed and the animal was killed. The rat carcass was counted in a whole body counter to determine the amount of radiolabeled heme isotope absorbed into the body from the duodenum.
The Wistar rats were divided into three groups of 4 animals each. Group 1 was used as a control group.
In this experiment, 5 animals were utilized in each of the control and testing groups. The incubation time period was extended to be fifteen minutes. […] The points seen in FIG. 9 represent the measurements obtained individual rats, while the shaded bars represent the mean value for each group of animals.

[4] = 800 μM
Method: TMP (free base porphyrin) was used at 160 and 800 μM concentrations in the taurodeoxycholate-solubilized heme solution.

[5] = read-out: concentration giving about 50% inhibition of heme iron uptake, titration with increasing amounts of inhibitor, uptake determined after 30 minutes
[6] = one of two cell lines (summary)

C[n+]1ccc(-c2c3nc(c(-c4cc[n+](C)cc4)c4ccc([n-]4)c(-c4cc[n+](C)cc4)c4nc(c(-c5cc[n+](C)cc5)c5ccc2[n-]5)C=C4)C=C3)cc1.[Cr+3] [Cr-TMP, Cr (III) meso-tetra(N-methyl-4-pyridyl) porphine]
concentration range in which active as inhibitor (IEC-6 cells [1]): low micromolar range | toxicity to the cell monolayer under the inverted microscope (IEC-6 cells [1]; 800 μM, 60 minutes): No toxicity to the cell monolayer was observed | inhibition of heme iron uptake, timed uptake (IEC-6 cells [1]; 800 μM, over 60 minutes, 37 degrees (FIG. 3)): inhibition to approximately background | inhibitory ability compared with the free base porphyrin (IEC-6 cells [1]; metal chelates of TMP): effective to still another order of magnitude | IC50 (IEC-6 cells [1]; [5]): ~4 µM | absorption across the intestinal wall [2]: essentially no absorption | plasma level, bounded by limit of sensitivity of the measurement [2]: < 40 nM | difference in plasma absorbance between control and treated groups ([2]; 447 nm): no difference | growth rate of the cells (K562 cells; 50 micromolar in growth media (FIG. 10)): not decreased | cell growth at higher concentrations (K562 cells; concentrations above 50 micromolar, growth slowed, cells remained viable): Some inhibition of cell growth | toxicity at a high concentration relative to contemplated therapeutic dosage (K562 cells; [6]): no toxicity | toxicity after prolonged exposure (K562 cells; two weeks of exposure): No toxicity | growth rate or extent (IEC-6 cells [3]; 50 μM, up to 7 days' exposure (FIG. 11)): no decrease in growth rate or extent | concentration up to which no toxicity was observed (IEC-6 cells [3]; day 4 (FIG. 12)): about 100 μM | toxicity at a high concentration relative to contemplated therapeutic dosage (IEC-6 cells [3]; [6]): no toxicity | inhibition of incorporation of radiolabeled heme into the animals (rat duodenum; 50 μM, 10 minutes): almost complete inhibition | inhibition of incorporation of radiolabeled heme into the animals (rat duodenum; 200 μM, 10 minutes): almost complete inhibition | in vivo inhibition of heme-iron uptake (conclusion) (rat duodenum; about 50 μM, 15 minutes (FIG. 9)): feasible in vivo

C[n+]1ccc(-c2c3nc(c(-c4cc[n+](C)cc4)c4ccc([nH]4)c(-c4cc[n+](C)cc4)c4nc(c(-c5cc[n+](C)cc5)c5ccc2[nH]5)C=C4)C=C3)cc1 [TMP, meso-tetra(N-methyl-4-pyridyl) porphine]
IC50 (IEC-6 cells [1]; read-out: concentration at which heme uptake is inhibited (as seen in FIGS. 2 and 4), summary of Tables 1 and 2): ~750 µM | IC50 (IEC-6 cells [1]; [5]): ~100 µM | precipitation in the heme solution [4]: slight precipitate | variation of inhibition in the group of animals (rat duodenum; 800 μM, 10 minutes): considerable variation in inhibition | inhibition of incorporation of iron from heme into the body of the animal (rat duodenum; 160 and 800 μM in heme solution, 10 minutes (FIG. 7)): inhibition of iron uptake was observed
